Data on 4 compounds can be found in ChEMBL document CHEMBL1130463, “Chemoenzymatic synthesis and characterization of a new type of carbohydrate-based cationic antimicrobial agents” (1997).

What all share (assay type): functional
One assay concerns Micrococcus luteus. Description: Minimum inhibitory concentration required for the inhibition of Micrococcus luteus.
The test system of the next assay is Vibrio alginolyticus. Description: Minimum inhibitory concentration required for the inhibition of Vibrio alginolyticus.
The next assay deals with Fusarium oxysporum. Put plainly: Minimum inhibitory concentration required for the inhibition of Fusarium oxysporum.

Structures are written as SMILES.

For orientation: MIC means the least concentration at which growth counts as inhibited. High values mean a less susceptible organism, low ones a more susceptible organism.

On to `CCCCCCCCCCCCCCCCCCCCCCCCCCCCCC(=O)OC[C@@H]1OC(OCCC[N+](C)(C)C)[C@@H](O)[C@@H](O)[C@@H]1O.[I-]` (some centres undefined), for which the MIC is 1000 µg/mL against Micrococcus luteus and 2000 µg/mL against Vibrio alginolyticus.
`CCCCCCCCCCCCCCCCCCCCCCCCCC(=O)OC[C@@H]1OC(OCCC[N+](C)(C)C)[C@@H](O)[C@@H](O)[C@@H]1O.[I-]` (some centres undefined): the minimum inhibitory concentration (MIC) against Micrococcus luteus amounted to 50 µg/mL; against Vibrio alginolyticus it was 2000 µg/mL.
In the case of `CCCCCCCCCCCCCCCCCCCCCC(=O)OC[C@@H]1OC(OCCC[N+](C)(C)C)[C@@H](O)[C@@H](O)[C@@H]1O.[I-]` (some centres undefined), the MIC stood at 10 µg/mL against Micrococcus luteus, 500 µg/mL in the assay on Fusarium oxysporum and 500 µg/mL against Vibrio alginolyticus.
On to `CCCCCCCCCCCCCCCCCC(=O)OC[C@@H]1OC(OCCC[N+](C)(C)C)[C@@H](O)[C@@H](O)[C@@H]1O.[I-]` (some centres undefined), for which the minimum inhibitory concentration (MIC) in the assay on Micrococcus luteus and against Vibrio alginolyticus was 2000 µg/mL each time.
